Data taken from PMC5667507, “A novel ^18F-labelled high affinity agent for PET imaging of the translocator protein” (Chemical Science, 2015).

Tested on: TSPO
Assay: Ex vivo autoradiography, U87MG-Luc2 orthotopic glioma bearing mice
Assay type: in vivo, mouse
Method: To investigate the behavior of [^18F]-AB5186 6 in vivo, ex vivo autoradiography was performed using mice bearing a U87MG-Luc2 orthotopic model of human glioblastoma. Animals were pre-treated with either vehicle (n = 4) or 1 mg kg^–1 unlabelled PK11195 (n = 4) administered intravenously 10 min prior to [^18F]-AB5186 6 intravenous injection. Animals were killed and brains were removed 20 min after the radiotracer was given and frozen. Cryostat sections were then used to generate autoradiograms. […] The non-tumour bearing contralateral side of the brain lacked proliferating cells and minimal TSPO expression and immunolabelled microglia were visible (data not shown). Under normal circumstances microglia express low levels of TSPO in the brain. […]
temperature. Non-specific binding was determined in adjacent sections by incubating with [18F]- AB5186 6 in the presence of 10 µM PK11195 (Tocris, UK). […]
Following this, the tissues were washed with 0.1% Tween® 20 in TBS (2 × 5 min) and a secondary one hour incubation at room temperature was performed using Dako horseradish-peroxidase labelled anti-mouse or anti-rabbit polymers. The sections were once again washed using 0.1% Tween® 20 in TBS (2 × 5 min) and the presence of antibody was detected using the 3,3’- diaminobenzidine chromagen solution diluted in Dako DAB+ substrate buffer. […]

CCN(CC)C(=O)c1nc2ccccc2c(-c2ccccc2)c1C[18F] [[^18F]-AB5186 6]
binding (tumour to contralateral optical density ratio) after PK11195 blockade (1 mg kg^-1 unlabelled PK11195 i.v. 10 min before tracer, P = 0.0002): significantly reduced
total binding, tumour tissue compared to contralateral region (ex vivo autoradiography, vehicle pre-treatment, brains removed 20 min after tracer i.v.): substantially higher
